Molecular target: T1, hTRPV3 (Homo sapiens, UniProt Q8NET8)
T1 construct: expressed in transfected cells; host or cells: HEK-293
T1 sequence (Q8NET8 1-790): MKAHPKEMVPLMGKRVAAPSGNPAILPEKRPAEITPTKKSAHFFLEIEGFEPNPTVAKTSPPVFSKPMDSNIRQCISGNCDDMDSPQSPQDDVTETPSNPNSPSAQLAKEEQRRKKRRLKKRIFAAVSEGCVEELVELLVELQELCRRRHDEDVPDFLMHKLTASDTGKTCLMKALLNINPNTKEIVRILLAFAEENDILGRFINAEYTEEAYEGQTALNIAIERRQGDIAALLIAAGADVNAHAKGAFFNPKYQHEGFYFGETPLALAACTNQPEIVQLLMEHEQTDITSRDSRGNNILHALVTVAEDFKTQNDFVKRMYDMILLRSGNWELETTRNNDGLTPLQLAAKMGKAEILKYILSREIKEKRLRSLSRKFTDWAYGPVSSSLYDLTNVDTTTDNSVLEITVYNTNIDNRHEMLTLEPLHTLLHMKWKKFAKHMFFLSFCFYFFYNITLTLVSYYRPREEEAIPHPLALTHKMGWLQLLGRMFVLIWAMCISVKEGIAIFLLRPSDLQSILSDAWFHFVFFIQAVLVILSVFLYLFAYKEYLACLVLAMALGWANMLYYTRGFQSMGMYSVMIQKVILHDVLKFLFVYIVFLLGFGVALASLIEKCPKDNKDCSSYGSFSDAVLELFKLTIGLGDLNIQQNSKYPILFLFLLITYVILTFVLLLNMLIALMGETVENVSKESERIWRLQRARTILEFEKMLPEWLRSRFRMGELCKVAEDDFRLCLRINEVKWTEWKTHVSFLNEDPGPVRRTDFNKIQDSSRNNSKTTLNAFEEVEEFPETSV
Experiment: Whole cell patch clamp inhibition rate test on HEK-293 cells instantaneously expressing TRPV3
Assay type: cell-based
Details: HEK293; hTRPV3, single concentration 0.3 μM
Procedure: In this study, HEK-293 cells instantaneously expressing TRPV3 were used for experimental detection.
The operation steps are as follows:
The cells were cultured in DMEM medium containing 10% fetal bovine serum at a temperature of 37° C. and a carbon dioxide concentration of 5%.
Day 1: Cells were inoculated into a 6-well plate with 5×10^5 cells per well.
Day 2: Transfection was performed using Lipofectamine 3000 transfection reagent, with a plasmid to transfection reagent ratio of 1 μg: 2 μL. The total amount of plasmid used per well was 3 μg. Specifically, two sterile centrifuge tubes were taken and 100 μL Opti-MEM was added to each tube. 6 μL Lipofectamine 3000 was added to one tube and mixed well; and 3 μg plasmid was added to another tube and mixed well, and then 6 μL P3000 was added and mixed well; Subsequently, the diluted plasmid DNA was added to diluted Lipofectamine 3000 and incubated at room temperature for 10-15 min. DNA liposome complex was dropped into the cells, shaked gently and mixed well, and then cultured in an incubator. The liquid was changed after 4 to 6 h.
Day 3: The cells were digested and seeded into 24 well plates with pre-placed cover slides, with 8×10^3 cells per well.
Day 4: Patch clamp testing was performed.
The voltage stimulation protocol for recording TRPV3 current using whole cell patch clamp is as follows: after forming a whole cell seal, a cell membrane voltage clamp was set at −80 mV. Firstly, a membrane potential was recorded at 0 mV, and then a voltage was command to start from −100 mV, to depolarize in the form of Ramp to 100 mV within 100 ms, and finally restore to 0 mV. Data collection was repeated every 5 seconds to observe the inhibitory effect of pharmaceutical on peak current. Experimental data was collected by EPC 10 amplifier (HEKA) and stored in PatchMaster (HEKA) software.
A microelectrode puller was used to pull the capillary glass tube into a recording electrode. The electrode filled with intracellular fluid was inserted into a microelectrode holder, and a microelectrode manipulator was operated under an inverted microscope to immerse the electrode in extracellular fluid and an electrode resistance (Rpip) was recorded. The electrode was brought into contact with the cell surface and a negative pressure suction was applied to form a high resistance seal (GΩ). At this point, a fast capacitance compensation was performed, and negative pressure was continued to apply in order to break the cell membrane, so that a whole cell recording mode was formed. Then, a slow capacitance compensation was performed and experimental parameters such as film capacitance (Cm) and series resistance (Rs) were recorded. No leakage compensation was provided.
When the TRPV3 current recorded by the whole cell had stabilized, administration was started. Each pharmaceutical concentration acted for 5 minutes (or until the current stabilized) before detecting the next concentration. A plurality of concentrations was tested for each test compound. A cover glass covered with cells was placed in a recording bath under an inverted microscope. A blank control extracellular solution and a working fluid for the compound to be tested sequentially flowed through the recording bath from low concentration to high concentration using gravity perfusion to act on the cells. Liquid exchange was performed using a peristaltic pump during recording. The current detected by each cell in the extracellular fluid without the compound served as its own control group. Each concentration was independently tested twice using at least two cells. All electrophysiological tests were conducted at room temperature.

SMILES | inhibition at 0.3 µM [%]
O=C(c1cccc(Cl)n1)N1CCC2(CC(O)c3cc(-c4ccccc4C4CC4)ccc32)C1 (stereo not shown) [Example 51, (6-chloropyridin-2-yl)(5-(2-cyclopropylphenyl)-3-hydroxy-2,3-dihydrospiro[indene-1,3′-pyrrolidine]-1′-yl)ketone] | 70 to 100
O=C(c1ncccc1Cl)N1CCC2(CC(O)c3cc(-c4ccccc4C4CC4)ccc32)C1 (stereo not shown) [Example 52, (3-chloropyridin-2-yl)(5-(2-cyclopropylphenyl)-3-hydroxy-2,3-dihydrospiro[indene-1,3′-pyrrolidine]-1′-yl)ketone] | 50 to 70
Cc1cccc(C(=O)N2CCC3(CC(O)c4cc(-c5ccccc5C5CC5)ccc43)C2)n1 (stereo not shown) [Example 53, (5-(2-cyclopropylphenyl)-3-hydroxy-2,3-dihydrospiro[indene-1,3′-pyrrolidine]-1′-yl)(6-methylpyridin-2-yl)ketone] | 70 to 100
CC(C)c1ccccc1-c1ccc2c(c1)C(O)CC21CCN(C(=O)c2ccccn2)C1 (stereo not shown) [Example 60, (3-hydroxy-5-(2-isopropylphenyl)-2,3-dihydrospiro[indene-1,3′-pyrrolidine]-1′-yl)(pyridin-2-yl)ketone] | 70 to 100
COc1cnc(C(=O)N2CCC3(CC(O)c4cc(-c5ccccc5C(C)C)ccc43)C2)cn1 (stereo not shown) [Example 63, (3-hydroxy-5-(2-isopropylphenyl)-2,3-dihydrospiro[indene-1,3′-pyrrolidine]-1′-yl)(5-methoxypyrazin-2-yl) ketone] | 70 to 100
Cc1cnc(C(=O)N2CCC3(CC(O)c4cc(-c5ccccc5C(C)C)ccc43)C2)cn1 (stereo not shown) [Example 65, (3-hydroxy-5-(2-isopropylphenyl)-2,3-dihydrospiro[indene-1,3′-pyrrolidine]-1′-yl)(5-methylpyrazin-2-yl)ketone] | 70 to 100
CC(C)c1ccccc1-c1ccc2c(c1)C(O)CC21CCN(C(=O)c2ncccn2)C1 (stereo not shown) [Example 66, (3-hydroxy-5-(2-isopropylphenyl)-2,3-dihydrospiro[indene-1,3′-pyrrolidine]-1′-yl)(pyrimidin-2-yl)ketone] | 25 to 50
CC(C)c1ccccc1-c1ccc2c(c1)C(O)CC21CCN(C(=O)c2cocn2)C1 (stereo not shown) [Example 70, (3-hydroxy-5-(2-isopropylphenyl)-2,3-dihydrospiro[indene-1,3′-pyrrolidine]-1′-yl)(oxazol-4-yl)ketone] | 50 to 70
CC(C)c1ccccc1-c1ccc2c(c1)C(O)CC21CCN(C(=O)c2cc[nH]n2)C1 (stereo not shown) [Example 71, (3-hydroxy-5-(2-isopropylphenyl)-2,3-dihydrospiro[indene-1,3′-pyrrolidine]-1′-yl)(1H-pyrazol-3-yl)ketone] | 50 to 70
CC(C)c1ccccc1-c1ccc2c(c1)C(O)CC21CCN(C(=O)C2CCN(C)CC2)C1 (stereo not shown) [Example 74, (3-hydroxy-5-(2-isopropylphenyl)-2,3-dihydrospiro[indene-1,3′-pyrrolidine]-1′-yl)(1-methylpiperidin-4-yl) ketone] | < 25
CC(C)c1ccccc1-c1ccc2c(c1)C(O)CC21CCN(C(=O)c2ccc3cn[nH]c3n2)C1 (stereo not shown) [Example 75, (3-hydroxy-5-(2-isopropylphenyl)-2,3-dihydrospiro[indene-1,3′-pyrrolidine]-1′-yl)(1Hpyrazolo[3,4-b]pyridin-6-yl) ketone] | 25 to 50
CC(C)c1ccccc1-c1ccc2c(c1)C(O)CC21CCN(C(=O)c2cc3cccn3cn2)C1 (stereo not shown) [Example 76, (3-hydroxy-5-(2-isopropylphenyl)-2,3-dihydrospiro[indene-1,3′-pyrrolidine]-1′-yl)(pyrrolo[1,2-c]pyrimidin-3-yl)ketone] | 50 to 70
CCc1ccccc1-c1ccc2c(c1)C(O)CC21CCN(C(=O)c2ccc(F)cn2)C1 (stereo not shown) [Example 80, (5-(2-ethylphenyl)-3-hydroxy-2,3-dihydrospiro[indene-1,3′-pyrrolidine]-1′-yl)(5-fluoropyridin-2-yl) ketone] | 70 to 100

More lines, now with the values ahead:

inhibition at 0.3 µM [%] | SMILES
70 to 100 | O=C(c1ccc(C(F)(F)F)cn1)N1CCC2(CC(O)c3cc(-c4ccccc4C4CC4)ccc32)C1 (stereo not shown) [Example 50, (5-(2-cyclopropylphenyl)-3-hydroxy-2,3-dihydrospiro[indene-1,3′-pyrrolidine]-1′-yl)(5-(trifluoromethyl)pyridin-2-yl) ketone]
70 to 100 | O=C(c1ccc(F)c(Cl)n1)N1CCC2(CC(O)c3cc(-c4ccccc4C4CC4)ccc32)C1 (stereo not shown) [Example 54, (6-chloro-5-fluoropyridin-2-yl)(5-(2-cyclopropylphenyl)-3-hydroxy-2,3-dihydrospiro[indene-1,3′-pyrrolidine]-1′-yl)ketone]
< 25 | COc1ncnc(OC)c1C(=O)N1CCC2(CC(O)c3cc(-c4ccccc4C4CC4)ccc32)C1 (stereo not shown) [Example 56, (5-(2-cyclopropylphenyl)-3-hydroxy-2,3-dihydrospiro[indene-1,3′-pyrrolidine]-1′-yl)(4,6-dimethoxypyrimidin-5-yl)ketone]
50 to 70 | CC(C)c1ccccc1-c1ccc2c(c1)C(O)CC21CCN(C(=O)c2ccn3nccc3n2)C1 (stereo not shown) [Example 57, (3-hydroxy-5-(2-isopropylphenyl)-2,3-dihydrospiro[indene-1,3′-pyrrolidine]-1′-yl)(pyrazolo[1,5-a]pyrimidin-5-yl) ketone]
70 to 100 | CC(C)c1ccccc1-c1ccc2c(c1)C(O)CC21CCN(C(=O)c2ccc(Cl)cn2)C1 (stereo not shown) [Example 58, (5-chloropyridin-2-yl)(3-hydroxy-5-(2-isopropylphenyl)-2,3-dihydrospiro[indene-1,3′-pyrrolidine]-1′-yl)ketone]
70 to 100 | CC(C)c1ccccc1-c1ccc2c(c1)C(O)CC21CCN(C(=O)c2ccc(F)cc2)C1 (stereo not shown) [Example 61, (4-fluorophenyl)(3-hydroxy-5-(2-isopropylphenyl)-2,3-dihydrospiro[indene-1,3′-pyrrolidine]-1′-yl)ketone]
50 to 70 | CC(C)c1ccccc1-c1ccc2c(c1)C(O)CC21CCN(C(=O)c2ccncn2)C1 (stereo not shown) [Example 67, (3-hydroxy-5-(2-isopropylphenyl)-2,3-dihydrospiro[indene-1,3′-pyrrolidine]-1′-yl)(pyrimidin-4-yl)ketone]
< 25 | COCc1cnc(C(=O)N2CCC3(CC(O)c4cc(-c5ccccc5C(C)C)ccc43)C2)cn1 (stereo not shown) [Example 69, (3-hydroxy-5-(2-isopropylphenyl)-2,3-dihydrospiro[indene-1,3′-pyrrolidine]-1′-yl)(5-(methoxymethyl)pyrazin-2-yl)ketone]
50 to 70 | O=C(c1ccc(F)cn1)N1CCC2(CC(O)c3cc(-c4ccccc4Cl)ccc32)C1 (stereo not shown) [Example 81, (5-(2-chlorophenyl)-3-hydroxy-2,3-dihydrospiro[indene-1,3′-pyrrolidine]-1′-yl)(5-fluoropyridin-2-yl) ketone]

From patent US20260174786A1, “A NITROGEN-CONTAINING SPIROCYCLIC COMPOUND, PHARMACEUTICAL COMPOSITION AND USE THEREOF” (Prime Gene Therapeutics Co., Ltd., priority 2022, published 2026)
